# Measurements: US20240374552A1, “Compositions and Methods for Preventing or Reducing the Risk of Metabolic Syndrome” (priority 2021, published 2024)
# Assays:
# Format in all cases: in vivo
# mice [1] = test: Subacute toxicity, 14-day daily intragastric administration
# Protocol: Animal studies in male and female mice of the CDI strain, and male rats of the Wistar strain were used.
# During the quarantine period (15 days) they were kept in a chamber with conditions of (22+2° C., 55+5% humidity and a light/dark cycle of 12:12 h), with food and water ad libitum. Prior to the start of the experiment, the animals (mice and rats) were deprived of food for 4 h, and recovered 2 h after the administration of the drug.
# The test animals were randomly divided into experimental groups corresponding to different doses of the drug, as shown in Table 2.
# mice [2] = test: Evaluation toxicity, 90-day daily intragastric administration in mice; settings: for Percentage of dead mice (%): purity min 95%
# Protocol: To investigate the toxicity of tyrphostin AG17 the following doses were tested in mice, the animals were randomly divided into experimental groups corresponding to different doses of tyrphostin. Tyrphostin was administered intragastric via daily for 90 days, after 90 days, the mice were weighed and sacrificed by cervical dislocation.
# In a second evaluation for the treatments with 5.50 mg/kg to 55.50 mg/kg of tyrphostin, using a lot tyrphostin AG17 with a minimum purity of 98% is used; the percentage of dead mice is reduced to 0% and in the case of the treatment with 100.00 mg/kg, the deaths are reduced to 10%.
# [3] = Acute oral gavage toxicity
compound,measurement,setting,value
"CC(C)(C)c1cc(C=C(C#N)C#N)cc(C(C)(C)C)c1O [tyrphostin AG17, Tyrphostin AG17]","Death, share of the population",mice [1]; 100.00 mg/kg,40%
same,Time until recovery from lethargy,mice [1]; 5.50 to 55.50 mg/kg,12 h
same,Signs of subacute toxicity presented,mice [1]; AT1: 0.175 mg/Kg daily 14 days,No apparent signs
same,Signs of subacute toxicity presented,mice [1]; AT2: 0.55 mg/Kg daily 14 days,No apparent signs
same,Signs of subacute toxicity presented,mice [1]; AT3: 1.75 mg/Kg daily 14 days,No apparent signs
same,Signs of subacute toxicity presented,mice [1]; AT4: 5.50 mg/Kg daily 14 days,Lethargy (10%)
same,"Lethargy, share of the population","mice [1]; AT4 group, 5.50 mg/kg",10%
same,Signs of subacute toxicity presented,mice [1]; AT5: 55.50 mg/Kg daily 14 days,Lethargy (20%)
same,"Lethargy, share of the population","mice [1]; AT5 group, 55.50 mg/kg",20%
same,Signs of subacute toxicity presented,mice [1]; AT6: 100.00 mg/Kg daily 14 days,Death (40%)
same,Percentage of dead mice (%),mice [2]; T1: 0.0001 mg/Kg daily 90 days,0%
same,Percentage of dead mice (%),mice [2]; T3: 0.001 mg/Kg daily 90 days,0%
same,Percentage of dead mice (%),mice [2]; T5: 0.175 mg/Kg daily 90 days,0%
same,Percentage of dead mice (%),mice [2]; T7: 0.76 mg/Kg daily 90 days,0%
same,Percentage of dead mice (%),mice [2]; T8: 1.70 mg/Kg daily 90 days,0%
same,Percentage of dead mice (%),mice [2]; T9: 1.75 mg/Kg daily 90 days,0%
same,Signs of toxicity during 90-day treatment,mice [2]; doses below 1.75 mg/kg,no apparent signs of toxicity
same,LD50,"[3]; C57BL/6, mouse, in vivo",33.3 mg/kg
same,Behavioral alterations,"[3]; doses 1.75, 5.5 and 17.5 mg/kg",inhibition in locomotion and piloerection
same,Lethal effect,"[3]; doses of 1.75, 5.5 and 17.5 mg/kg",no lethal effect observed
same,Mortality,"[3]; doses of 28, 40 and 55.5 mg/kg",increase in mortality
